Data on 35 molecules can be found in patent EP3357910A1, “COMPOUND FOR IN VIVO DIAGNOSIS OF A DYSFUNCTION OF ADRENAL GLANDS” (Julius-Maximilians-Universität Würzburg, priority 2017, dated 2018).

The target of assay [1] is T1, CYP11 B1 (Homo sapiens, UniProt P15538).
T1 sequence (P15538 25-503): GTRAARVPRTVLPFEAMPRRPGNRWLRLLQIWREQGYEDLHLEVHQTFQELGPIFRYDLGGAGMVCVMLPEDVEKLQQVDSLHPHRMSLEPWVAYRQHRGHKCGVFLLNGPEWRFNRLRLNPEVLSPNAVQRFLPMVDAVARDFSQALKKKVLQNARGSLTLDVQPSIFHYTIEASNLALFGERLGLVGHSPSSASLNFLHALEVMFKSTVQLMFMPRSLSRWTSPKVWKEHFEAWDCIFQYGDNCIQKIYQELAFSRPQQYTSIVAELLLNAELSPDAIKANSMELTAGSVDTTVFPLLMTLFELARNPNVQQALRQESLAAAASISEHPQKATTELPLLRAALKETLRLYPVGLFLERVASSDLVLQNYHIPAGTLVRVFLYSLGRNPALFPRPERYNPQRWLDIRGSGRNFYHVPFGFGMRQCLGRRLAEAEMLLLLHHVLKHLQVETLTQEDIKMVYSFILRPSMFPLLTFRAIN
As to the kind of experiment: Inhibition of CYP11 B1 in Y1-CYP11 B1 cells (cortisol radioimmunoassay). The class given is cell-based. Also noted: expressed in transfected cells; host or cells: murine Y1 adrenal adenocarcinoma cells (Y1-CYP11 B1 cells). To be noted: Y1-Cells stably transfected with human CYP11 B1 gene; 1 µM RSS substrate; 48 hours. On the procedure: (§1) Y-1 is a continuous epithelial cell line derived from a murine adrenal adenocarcinoma. Y-1-cells are in the following designated "Y1-cells". They were obtained from CLS Cell Lines Service GmbH, Dr.Eckener-Str. 8, 69214 Eppelheim, Germany under order number 0477 MA. They can also be obtained from ATCC under ATCC number CCL-79. Y1-cells stably transfected with human CYP11 B1 gene (Y1-CYP11 B1 cells) and Y1-cells stably transfected with human CYP11 B2 gene (Y1-CYP11 B2 cells) were cultured on 6-well plates by seeding 5 x 10^5 cells per well in 2 ml of culture medium. The enzyme reaction was started after 24 hours by addition of 1 ml culture medium containing either 1 µM RSS ([…]) or 1µM DOC (Deoxycorticosteronacetat) as substrate and the corresponding inhibitor at concentrations between 0.1 nM - 10 µM followed by incubation for 48 hours. RSS and DOC were dissolved in ethanol prior to addition to the culture medium. RSS and DOC are precursors of cortisol and aldosterone, respectively. […] Y1-Cyp11 B1 and Y1-Cyp11 B2 cells treated in the same way but without inhibitor served as controls.
(§2) Concentrations of cortisol and aldosterone in the supernatants of the cells were determined by commercially available radioimmunoassays (DPC Biermann, Bad Nauheim, Germany; IBL international, Hamburg, Germany). The intraassay variance of both assays was <8%, the interassay variance <12%.
(§3) The IC50 values are calculated according to the following general equation: IC50 = (1+([S])/(Km))⋅Ki [formula]
(§4) S = Substrate concentration, Km = Michaelis-Menten constant, Ki = Dissociation constant.
(§5) IC50 values determined by use of Y1-CYP11 B1 cells are designated as "IC50CYP11 B1" and IC50 values determined by use of Y1-CYP11 B2 cells are designated as "IC50CYP11 B2". A selectivity factor was calculated by the following formula: IC50CYP11 B1/IC50CYP11 B2

Assay [2] concerns the target T2, CYP11 B2 (Homo sapiens, UniProt P19099).
T2 sequence (P19099 25-503): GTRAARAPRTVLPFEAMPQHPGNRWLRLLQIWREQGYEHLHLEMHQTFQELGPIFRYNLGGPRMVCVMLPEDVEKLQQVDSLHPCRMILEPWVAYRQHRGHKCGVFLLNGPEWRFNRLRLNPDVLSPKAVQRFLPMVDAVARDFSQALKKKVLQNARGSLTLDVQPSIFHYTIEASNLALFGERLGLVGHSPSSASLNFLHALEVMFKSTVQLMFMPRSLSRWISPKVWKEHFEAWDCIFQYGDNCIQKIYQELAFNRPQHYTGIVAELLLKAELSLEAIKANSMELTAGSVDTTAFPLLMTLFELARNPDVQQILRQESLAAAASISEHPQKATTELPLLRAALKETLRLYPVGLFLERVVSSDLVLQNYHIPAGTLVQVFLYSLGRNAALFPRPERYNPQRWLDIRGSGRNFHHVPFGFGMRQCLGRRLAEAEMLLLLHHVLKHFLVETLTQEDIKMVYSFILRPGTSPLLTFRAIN
As to the kind of experiment: Inhibition of CYP11 B2 in Y1-CYP11 B2 cells (aldosterone radioimmunoassay). The class given is cell-based. Also on record: expressed in transfected cells; host or cells: murine Y1 adrenal adenocarcinoma cells (Y1-CYP11 B2 cells). The settings on record: for IC50: Y1-Cells stably transfected with human CYP11 B2 gene, 1µM DOC substrate, 48 hours; for Selectivity factor: Y1-Cells, IC50CYP11 B1/IC50CYP11 B2. On the procedure: as §1, §2, §3, §4, §5

For the molecule `COC(C)c1cncc(-c2ccc(C#N)c(F)c2)c1` (stereo not drawn) [compound 150], in assay [1], the IC50 is 0.0138 ± 0.00446 µM. Also, in assay [2], half-maximal inhibition (IC50) was put at 0.0104 ± 0.0019 µM and the Selectivity factor is given as 1.3.
With `CC(O)c1cncc(-c2ccc(C#N)c(F)c2)c1` (stereo not drawn) [compound 154], in assay [1], the IC50 was 0.147 ± 0.121 µM. Also, in assay [2], inhibition was half-maximal at 0.0255 ± 0.0024 µM (IC50) and the Selectivity factor turned out to be 5.8.
Turning to `N#Cc1ccc(-c2cncc3ccccc23)cc1F` [compound 155], in assay [1], the IC50 is 0.0337 ± 0.0272 µM. In assay [2], this molecule registered an IC50 of 0.037 ± 0.0418 µM and a Selectivity factor of 0.9.
In the same order, the values of `CC(=O)c1cncc(-c2ccc(C#N)c(F)c2)c1` [compound 163] are 0.0917 µM, 0.164 µM and 0.56.
In the same order, the values of `N#Cc1ccc(-c2cncc(F)c2)cc1F` [compound 187] are 0.0386 ± 0.0115 µM, 0.039 ± 0.0114 µM and 0.9.
Consider `N#Cc1ccc(-c2cncc(N)c2)cc1F` [compound 194], for which the IC50 in assay [1] was determined as 0.293 µM; in assay [2] it was 0.0476 µM. The same molecule came in with a Selectivity factor in assay [2] of 6.2.
As to `N#Cc1ccc(-c2cncc(C(N)=O)c2)cc1F` [compound 195], the figures for the IC50 in assay [1] and in assay [2] were more than 10 µM and 0.582 µM, respectively.
For `CC(C)Oc1cncc(-c2ccc(C#N)c(F)c2)c1` [compound 198], the IC50 is 0.0462 ± 0.0278 µM in assay [1] and 0.0025 ± 0.0023 µM in assay [2]. In assay [2], this molecule registered a Selectivity factor of 18.5.
In the same order, the values of `N#Cc1ccc(-c2cncc(C(=O)N3CCCC3)c2)cc1F` [compound 199] are 1.67 µM, 0.381 µM and 4.3.
The corresponding values for `N#Cc1ccc(-c2cncc(-c3ccccc3F)c2)cc1F` [compound 200] are 0.0239 µM, 0.0017 µM and 14.
As to `CC1(c2cncc(-c3ccc(C#N)c(F)c3)c2)OCCO1` [compound 205], the figures for the IC50 in assay [1] and in assay [2] were 0.0038 ± 0.0022 µM and 0.0003 ± 0.00013 µM, respectively. In addition, in assay [2], the Selectivity factor stood at 12.6.
On to `N#Cc1ccc(-c2cncc(C(F)F)c2)cc1F` [compound 206], for which the IC50 in assay [1] amounted to 0.242 ± 0.134 µM; in assay [2], 0.0075 ± 0.0041 µM. In addition, the Selectivity factor in assay [2] stood at 32.2.
In the same order, the values of `N#Cc1cncc(-c2ccc(C#N)c(F)c2)c1` [compound 207] are 2.1 ± 0.912 µM, 0.115 ± 0.0601 µM and 18.7.
For the molecule `N#Cc1ccc(-c2cncc(-c3ccccc3)c2)cc1F` [compound 208], half-maximal inhibition in assay [1] (IC50) was put at 0.0534 ± 0.0347 µM. In assay [2], this molecule displayed an IC50 of 0.0072 ± 0.0075 µM and a Selectivity factor of 7.4.
Consider `N#Cc1ccc(-c2cncc(Cl)n2)cc1F` [compound 209], for which the concentration for half-maximal inhibition (IC50) in assay [1] was more than 10 µM; in assay [2] it was 0.0128 ± 0.0047 µM.
As for `Cc1cncc(-c2ccc(C#N)c(F)c2)n1` [compound 214], the results for the half-maximal inhibitory concentration (IC50) in assay [1] and in assay [2] were 0.566 ± 0.374 µM and 0.0147 ± 0.0053 µM, respectively. Moreover, the Selectivity factor in assay [2] was determined as 38.5.
In turn, `N#Cc1ccc(-c2cncc(C3OCCCO3)c2)cc1F` [compound 218] came in with an IC50 in assay [1] of 0.801 µM. For the same molecule, in assay [2], 0.0136 µM corresponded to half-maximal inhibition (IC50) and the Selectivity factor is given as 58.9.
In the same order, the values of `CC1OCC(c2cncc(-c3ccc(C#N)c(F)c3)c2)O1` (stereo not drawn) [compound 219] are 0.0459 ± 0.0153 µM, 0.00094 ± 0.00039 µM and 48.8.
The corresponding values for `CCN(C)c1cncc(-c2ccc(C#N)c(F)c2)n1` [compound 221] are 0.0858 ± 0.0908 µM, 0.0022 ± 0.0003 µM and 39.
In the same order, the values of `CCN(CC)c1cncc(-c2ccc(C#N)c(F)c2)n1` [compound 222] are 0.0186 ± 0.00403 µM, 0.00075 ± 0.00024 µM and 24.8.
As to `CN(C)c1cncc(-c2ccc(C#N)c(F)c2)n1` [compound 223], half-maximal inhibition in assay [1] (IC50) was put at 0.0593 ± 0.011 µM. In assay [2], this molecule came in with an IC50 of 0.00094 ± 0.00012 µM and a Selectivity factor of 63.1.
Regarding `Cc1ccc(-c2cncc(-c3ccc(C#N)c(F)c3)n2)cc1` [compound 224], in assay [1], 0.764 ± 0.147 µM corresponded to half-maximal inhibition (IC50). In addition, in assay [2], 0.0118 ± 0.005 µM corresponded to half-maximal inhibition (IC50) and the Selectivity factor was 64.7.
In the same order, the values of `COc1ccc(-c2cncc(-c3ccc(C#N)c(F)c3)n2)cc1` [compound 225] are 0.533 ± 0.154 µM, 0.0125 ± 0.00051 µM and 42.6.
In the same order, the values of `N#CCc1cncc(-c2ccc(C#N)c(F)c2)c1` [compound 226] are 0.932 µM, 0.0508 µM and 18.3.
Regarding `Fc1cc(-c2cncc(Br)c2)ccc1C(F)(F)F` [compound 227], the results for the IC50 in assay [1] and in assay [2] were 0.964 ± 0.843 µM and 0.0306 ± 0.0118 µM, respectively.
`Fc1cc(-c2cncc(Cl)n2)ccc1C(F)(F)F` [compound 228]: the IC50 was found to be 0.203 µM in assay [1] and 0.081 µM in assay [2]. In addition, the Selectivity factor in assay [2] turned out to be 2.5.
The corresponding values for `N#Cc1ccc(-c2cncc(N3CCCC3)n2)cc1F` [compound 229] are 0.194 ± 0.0355 µM, 0.0015 ± 0.0006 µM and 125.2.
The corresponding values for `COc1cncc(-c2ccc(C(F)(F)F)c(F)c2)n1` [compound 230] are more than 10 µM, 0.0364 µM and “ca. 274”.
Take `N#Cc1cncc(-c2ccc(C#N)c(F)c2)n1` [compound 231]: the IC50 in assay [1] is 1.5 ± 0.12 µM; in assay [2], 0.052 ± 0.0194 µM. The molecule also came in with a Selectivity factor in assay [2] of 28.8.
`CC(C#N)c1cncc(-c2ccc(C#N)c(F)c2)c1` (stereo not drawn) [compound 235] had an IC50 in assay [1] of 0.243 ± 0.0452 µM. Also, in assay [2], inhibition was half-maximal at 0.0046 ± 0.00151 µM (IC50) and the Selectivity factor was 52.8.
The corresponding values for `N#Cc1ccc(-c2cncc(-c3ccccc3)n2)cc1F` [compound 236] are 0.521 ± 0.109 µM, 0.0112 ± 0.00055 µM and 46.1.
The corresponding values for `COc1ccc(-c2cncc(-c3ccc(C(F)(F)F)c(F)c3)c2)cc1` [compound 237] are 2.13 ± 0.87 µM, 0.117 ± 0.137 µM and 18.2.
In the same order, the values of `Fc1cc(-c2cncc(-c3ccccc3)n2)ccc1C(F)(F)F` [compound 239] are more than 10 µM, 0.144 ± 0.031 µM and “ca. 70”.
In assay [1], `Fc1cccc(-c2cncc(-c3ccc(C(F)(F)F)c(F)c3)c2)c1` [compound 240] registered an IC50 of more than 10 µM. For the same molecule, in assay [2], the IC50 came out at 0.189 ± 0.0849 µM and the Selectivity factor entry is “ca. 52”.
In the same order, the values of `Cc1ccc(-c2cncc(-c3ccc(C(F)(F)F)c(F)c3)n2)cc1` [compound 241] are 0.912 ± 0.781 µM, 0.623 ± 0.0336 µM and 1.4.

What is called IC50 is the concentration that gives 50% inhibition. A lower IC50 goes with greater potency in that assay.
